What was measured:
DRG nociceptors = assay: Whole-cell patch clamp recordings in whole-mount DRGs ex vivo; assay type: cell-based, mouse; settings: PTX-treated Ifnar1-WT or Ifnar1-KO mice, ex vivo incubation 30 μM
Experimental: Whole-cell patch clamp recordings in whole-mount DRGs ex vivo: To test the effects of anti-IFNβ neutralizing antibodies, naïve male and female mice were utilized. […] To perform whole-cell patch clamp recordings in whole-mount DRGs, L1-L5 DRGs were carefully isolated and placed in oxygenated ACSF. Using a stereoscope, peripheral and central DRG projections and connective tissue were dissected away. DRGs were lightly digested for 20 minutes using an enzymatic mixture consisting of 0.32 ml collagenase A (1 mg/mL) and Trypsin (0.25%). […] Following incubation, DRGs were transferred to a recording chamber, where neurons could be visualized using a 40× water-immersion objective on an Olympus BX51WI microscope. The recording chamber was continuously perfused (2-3 ml/min) with ACSF. The pipette solution contained 140 mM KC1, 2 mM MgCl2, 10 mM HEPES, 2 mM Mg-ATP at pH 7.4. The resistance of the glass pipettes was 8-10 MΩ. Data were acquired and analyzed using the pClamp10 (Axon Instruments) software.

tumor-bearing femora = assay: Microcomputed tomography of tumor-bearing femurs; assay type: in vivo, mouse
Experimental: Microcomputed tomography. Microcomputed tomography (MicroCT) analyses were performed on femurs from tumor inoculated mice or naïve mice using a VivaCT 80 scanner with the 55-kVp source (Scanco, Southeastern, Pa.) as previously described (Wang, C. et al. “NOTCH signaling in skeletal progenitors is critical for fracture repair.” The Journal of Clinical Investigation 126, 1471-1481 (2016); Cao, C. et al. “Increased Ca2+ signaling through CaV1.2 promotes bone formation and prevents estrogen deficiency-induced bone loss.” JCI Insight 2, (2017)). Quantification of microCT data was calculated for distal femurs of mice treated with vehicle or DMXAA. Parameters quantified included bone volume/total volume (BV/TV) and connectivity density (Conn.D) within a region of 100 slides and 200 slides proximal to the distal growth plate.

[1] = system: LLC / LL/2-Luc2 / E0771 bone tumors; assay: Local tumor burden (bioluminescence imaging, thigh circumference ratio); assay type: in vivo, mouse
Experimental: Culture of LLC cells and measurement of local tumor burden: Murine LLC cells were cultured in high glucose (4.5 g/L) Dulbecco's Modified Eagle Medium (DMEM; ThermoFisher) supplemented with 10% fetal bovine serum (Gibco, ThermoFisher) and 1% Antibiotic-Antimycotic solution containing penicillin, streptomycin, and Amphotericin B (ThermoFisher, 15240062). Cells were cultured in the presence of 5% CO2 at 37° C. Cells were passaged using a 0.05% trypsin digest once they achieved 70% confluency. Prior to in vivo injection, cells were harvested with 0.05% trypsin digestion followed by several washes in PBS. Cell counts were performed using a hemocytometer and diluted to achieve a suspension of 1×10^8 ml-1 cells in PBS. To determine whether i.t. STING agonists altered local tumor burden induced by femoral inoculation with LLC cells, mice were lightly anesthetized with isoflurane at the conclusion of the experiment, followed by measurement of the total circumference of the widest aspect of the thigh, which accurately reflects tumor burden. Ratios were computed between the ipsilateral (LLC-inoculated) and contralateral (tumor-free) legs.
In vivo bioluminescence imaging. RediJect D-Luciferin Ultra was purchased from PerkinElmer (770505). Prior to in vivo imaging, mice were shaved in the region of interest depicted in the figure. Bioluminescence images of LL/2-Luc2 bearing mice were captured with IVIS Lumina III system 15 min after intraperitoneal injection of D-Luciferin (30 mg/kg). The IVIS acquisition control panel was set to following conditions for imaging: Exposure time=auto, Binning=medium, F/Stop=1, Emission Filter=open. The bioluminescence images were analyzed using Living Image software from PerkinElmer.
STING agonists suppress local bone cancer tumor burden and further metastasis. Intratumoral injection of STING agonists has been reported to reduce tumor growth by promoting T cell-mediated antitumor immunity in several preclinical animal studies. It is unknown, however, whether systemic administration of STING agonists can attenuate tumor progression in the bone marrow, which is generally regarded as an overwhelmingly immunosuppressive tumor microenvironment. To answer this question, luciferase-labeled LLC cells (LL/2-LUC2 cell line) were used to establish the metastatic bone cancer model via intrafemoral inoculation, thereby enabling measurement of local tumor burden by in vivo bioluminescent imaging. Mice were treated with vehicle or DMXAA (20 mg/kg, i.p. at d3 and d7), followed by in vivo bioluminescence imaging at d8, d11, and d15. […] To quantify this, we measured the ratio of the maximum thigh circumference (ipsilateral/contralateral), which accurately reflects local tumor volume. […]

| Structure (SMILES) | action potential firing of DRG nociceptors (DRG nociceptors) | cortical bone volume/total volume (BV/TV) (tumor-bearing femora; d11) | trabecular bone connectivity density (Conn.D) (tumor-bearing femora; d11) | trabecular bone loss and cortical bone lesions (3D reconstruction) (tumor-bearing femora; d11 after tumor implantation) | local tumor burden (total flux, bioluminescence) ([1]; LL/2-Luc2, 20 mg/kg i.p. d3 and d7) | local tumor burden, Batf3^+/+ vs Batf3^−/− ([1]; d17) | ratio of maximum thigh circumference, WT vs Rag1^−/− ([1]; d17) | ratio of maximum thigh circumference (ipsilateral/contralateral) ([1]; day 17, LLC and E0771 models) |
| --- | --- | --- | --- | --- | --- | --- | --- | --- |
| Nc1ncnc2c1ncn2[C@@H]1O[C@@H]2COP(=O)([S-])O[C@@H]3[C@H](O)[C@@H](COP([O-])(=S)O[C@H]2[C@H]1O)O[C@H]3n1cnc2c(N)ncnc21.[Na+].[Na+] (stereo partly drawn) [ADU-S100, (2′-5′)-[P(R)]-5′-O-[(R)-hydroxymercaptophosphinyl]-P-thioadenylyl-adenosine cyclic dinucleotide] | dramatically reduced action potential firing in WT mice, and this effect was abolished in Ifnar1-deficient neurons |  |  |  |  |  |  |  |
| Cc1ccc2c(=O)c3cccc(CC(=O)O)c3oc2c1C [DMXAA, 2-(5,6-dimethyl-9-oxo-9H-xanthen-4-yl)acetic acid] |  | increased cortical bone volume/total volume (BV/TV) | higher trabecular bone connectivity density (Conn.D) | less bone cancer-induced trabecular bone loss and fewer cortical bone lesions | lower local tumor burden at d11 and d15 | only tumor-bearing Batf3^+/+ mice but not Batf3^−/− mice exhibited a decrease in local tumor burden | effectively reduced the ratio of maximum thigh circumference only in WT mice but not in Rag1^−/− mice | could reduce the ratio of maximum thigh circumference |
